From PubChem BioAssay AID2649 (Southern Research Specialized Biocontainment Screening …, 2010)
The source made the active and inactive calls.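 How the source made its calls: active means lowest viability as percent of untreated cell control, measured with 5% serum, under 70% cytotoxic; inactive means the rest.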

Columns and labels:
[1] = system: MAGI-CCR5 HeLa cells viability, MTS, 5% serum; assay: MAGI-CCR5 HeLa cell viability loss – MTS, 5% and 10% serum, cytotoxicity control for HIV-1 antiviral lead project, SAR follow-up (AID 2649)
[2] = system: MAGI-CCR5 HeLa cells viability, MTS, 10% serum; assay: as above

N#C/C(=C\c1ccc(O)c([N+](=O)[O-])c1)c1nc2ccccc2s1
CC50 [1]: > 100 µM (inactive)
CC50 [2]: > 100 µM

Cc1c2c(=O)n(-c3nc4ccccc4s3)nc-2cc(O)n1Cc1ccccc1
CC50 [1]: > 100 µM (inactive)
CC50 [2]: > 100 µM

N#C/C(=C\c1ccc(OCc2ccc(Cl)cc2)cc1)C(=O)Nc1cccc(C(=O)O)c1
CC50 [1]: > 100 µM (inactive)
CC50 [2]: > 100 µM

CC(C)NC(=O)c1sc(=S)n2c1[nH]c(=O)c1ccc(C(=O)NCCc3ccc(Cl)cc3)cc12
CC50 [1]: > 100 µM (inactive)
CC50 [2]: > 100 µM

O=C(N/N=C/c1c(O)n(C2CCCCC2)c(=S)[nH]c1=O)c1ccccc1O
CC50 [1]: > 100 µM (inactive)
CC50 [2]: > 100 µM

Cc1c(Cl)cccc1NS(=O)(=O)c1ccc2c(c1)C1C=CCC1C(c1ccc(C(=O)O)cc1)N2 (stereo not drawn)
CC50 [1]: 71.7 µM
CC50 [2]: > 100 µM

O=[N+]([O-])c1cc([N+](=O)[O-])c2oc(-c3ccccc3)c(Br)c2c1O
CC50 [1]: 38.7 µM
CC50 [2]: > 100 µM

CC(C)(C)c1cc(-c2csc(Nc3ccccc3)[n+]2Cc2ccc(C(=O)O)cc2)cc(C(C)(C)C)c1O
CC50 [1]: 54.9 µM
CC50 [2]: 62.4 µM

CSc1nnc(-c2ccccc2N=Cc2c(C)[nH]n(-c3ccc4ccccc4c3)c2=O)c(=O)[nH]1
CC50 [1]: > 100 µM (inactive)
CC50 [2]: > 100 µM

CCOC(=O)C1=C(C)N=c2sc(=Cc3ccc(OCC(=O)O)cc3)c(=O)n2C1c1ccc(OC(C)C)cc1 (stereo not drawn)
CC50 [2]: > 100 µM

O=C1NC(=S)N(c2ccc(F)cc2)C(=O)/C1=C\c1ccoc1
CC50 [2]: > 100 µM

O=C(O)CCCN1C(=O)/C(=C/c2ccc(-c3nc4ccccc4s3)o2)SC1=S
CC50 [1]: > 100 µM (inactive)
CC50 [2]: > 100 µM

COc1cc(/C=C2\SC(=O)N(c3ccccc3Cl)C2=O)cc([N+](=O)[O-])c1O
CC50 [2]: > 100 µM

Oc1c(Cl)cc(Cl)c(Cl)c1Cc1c(O)c(Cl)cc(Cl)c1Cl
CC50 [1]: 56.5 µM
CC50 [2]: > 100 µM

COc1cc(/C=N/NS(=O)(=O)c2ccc3ccccc3c2)ccc1OCc1ccc(C(=O)O)cc1
CC50 [1]: > 100 µM (inactive)
CC50 [2]: > 100 µM

COC(=O)c1sc(-c2ccc(C(C)(C)C)cc2)cc1NC(=O)c1ccccc1C(=O)O
CC50 [1]: 88.7 µM
CC50 [2]: > 100 µM

CCC(Sc1nc2ccsc2c(=O)n1Cc1ccc(C(=O)O)cc1)C(=O)Nc1ccc(C)c(Cl)c1 (stereo not drawn)
CC50 [1]: > 100 µM (inactive)
CC50 [2]: > 100 µM

CCOc1cc(/C=C2\SC(=O)N(CC(=O)Nc3ccccc3F)C2=O)cc([N+](=O)[O-])c1O
CC50 [1]: > 100 µM (inactive)
CC50 [2]: > 100 µM

CCOC(=O)c1sc(N2C(=O)C(O)=C(C(=O)c3ccc(C)o3)C2c2cccc([N+](=O)[O-])c2)nc1C (stereo not drawn)
CC50 [1]: > 100 µM (inactive)
CC50 [2]: > 100 µM

O=C(O)c1ccccc1N=Nc1c(O)[nH]c2ccc([N+](=O)[O-])cc12
CC50 [1]: > 100 µM (inactive)
CC50 [2]: > 100 µM

CCC(C)(C)C1CCc2c(sc(NC(=O)c3ccccc3C(=O)O)c2C#N)C1 (stereo not drawn)
CC50 [2]: > 100 µM
